Laboratory results as given in patent US10329289B2, “6,7-dihydro-5H-pyrrolo[3,4-B]pyridin-5-one allosteric modulators of the M4 muscarinic acetylcholine receptor” (Merck Sharp & Dohme Corp., priority 2015, dated 2019).

What follows are compounds tested against T1, human M4 muscarinic acetylcholine receptor (Homo sapiens, UniProt P08173) (assay: human FLIPR-based M4 PAM assay (Ca2+ mobilization, CHO-K1 cells with human M4 receptor and Gαqi5)). Settings: acetylcholine at 20% of maximum response, read-out: M4 PAM IP.
T1 construct: expressed in transfected cells; host or cells: CHO-K1
T1 sequence (P08173 1-479): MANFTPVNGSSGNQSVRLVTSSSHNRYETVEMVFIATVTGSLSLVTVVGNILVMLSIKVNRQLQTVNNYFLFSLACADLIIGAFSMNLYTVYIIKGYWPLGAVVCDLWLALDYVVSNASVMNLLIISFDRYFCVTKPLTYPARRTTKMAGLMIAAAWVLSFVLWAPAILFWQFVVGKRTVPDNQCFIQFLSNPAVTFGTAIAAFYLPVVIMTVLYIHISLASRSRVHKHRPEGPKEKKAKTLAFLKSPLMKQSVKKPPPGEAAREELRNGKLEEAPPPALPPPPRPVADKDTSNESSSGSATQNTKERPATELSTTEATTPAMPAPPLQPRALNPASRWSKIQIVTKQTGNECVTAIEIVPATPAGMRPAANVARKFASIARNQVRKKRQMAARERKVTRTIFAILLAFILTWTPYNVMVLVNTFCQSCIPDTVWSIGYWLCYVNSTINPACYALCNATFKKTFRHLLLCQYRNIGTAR
Assay type: cell-based
How it was run: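 CHO-K1 cells stably expressing human M4 and chimeric Gαqi5 were dye-loaded ~1 h at 37 °C and read for Ca2+ fluorescence. Compound followed by acetylcholine at an EC20 (sometimes an EC70 third addition); inflection point from a 4-parameter logistic fit.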

| SMILES | EC50 [nM] |
| --- | --- |
| Cc1cc2c(nc1N1CCC(Oc3ccc4c(c3)CN(C(=O)OC(C)(C)C)CC4)CC1)CNC2=O [Example 137, tert-butyl 7-((1-(3-methyl-5-oxo-6,7-dihydro-5H-pyrrolo[3,4-b]pyridin-2-yl)piperidin-4-yl)oxy)-3,4-dihydroisoquinoline-2(1H)-carboxylate] | 515 |
| Cc1cc2c(nc1N1CCC(Oc3ccc4c(c3)C(=O)N(C)CC4)CC1)CNC2=O [Example 138, 2-methyl-7-((1-(3-methyl-5-oxo-6,7-dihydro-5H-pyrrolo[3,4-b]pyridin-2-yl)piperidin-4-yl)oxy)-3,4-dihydroisoquinolin-1(2H)-one] | 390 |
| Cc1cc2c(nc1N1CCC(Oc3ccc4c(c3)C(=O)CO4)CC1)CNC2=O [Example 139A, 3-methyl-2-(4-((3-oxo-2,3-dihydrobenzofuran-5-yl)oxy)piperidin-1-yl)-6,7-dihydro-5H-pyrrolo[3,4-b]pyridin-5-one] | 628 |
| Cc1cc2c(nc1N1CCC(Oc3ccn4ccnc4c3)CC1)CNC2=O [Example 140, 2-(4-(imidazo[1,2-a]pyridin-7-yloxy)piperidin-1-yl)-3-methyl-6,7-dihydro-5H-pyrrolo[3,4-b]pyridin-5-one] | 4710 |
| Cc1cc2c(nc1N1CCC(Oc3ccc4c(c3)CCNC4)CC1)CNC2=O [Example 144, 3-Methyl-2-(4-((1,2,3,4-tetrahydroisoquinolin-6-yl)oxy)piperidin-1-yl)-6,7-dihydro-5H-pyrrolo[3,4-b]pyridin-5-one] | 316 |
| Cc1cc2c(nc1N1CCC(Oc3cnc4c(c3)NCCO4)CC1)CNC2=O [Example 145, 2-(4-((2,3-dihydro-1H-pyrido[2,3-b][1,4]oxazin-7-yl)oxy)piperidin-1-yl)-3-methyl-6,7-dihydro-5H-pyrrolo[3,4-b]pyridin-5-one] | 2160 |
| Cc1cc2c(nc1N1CCC(Oc3ccc4c(c3)CNCC4)CC1)CNC2=O [Example 146, 3-methyl-2-(4-((1,2,3,4-tetrahydroisoquinolin-7-yl)oxy)piperidin-1-yl)-6,7-dihydro-5H-pyrrolo[3,4-b]pyridin-5-one] | 286 |
| Cc1cc2c(nc1N1CCC(Oc3ccc4c(c3)CNC4)CC1)CNC2=O [Example 147, 2-(4-(isoindolin-5-yloxy)piperidin-1-yl)-3-methyl-6,7-dihydro-5H-pyrrolo[3,4-b]pyridin-5-one] | 313 |
| Cc1nc2cc(OC3CCN(c4nc5c(cc4C)C(=O)NC5)CC3)ccc2[nH]1 [Example 149, 3-methyl-2-(4-((2-methyl-1H-benzo[d]imidazol-5-yl)oxy)piperidin-1-yl)-6,7-dihydro-5H-pyrrolo[3,4-b]pyridin-5-one] | 1000 |
| Cc1cc2c(nc1N1CCC(Oc3ccnc(CO)c3)CC1)CNC2=O [Example 152, 2-(4-((2-(hydroxymethyl)pyridin-4-yl)oxy)piperidin-1-yl)-3-methyl-6,7-dihydro-5H-pyrrolo[3,4-b]pyridin-5-one] | 1150 |
| Cc1cc2c(nc1N1CCC(Oc3ccc4c(c3)c(C)nn4CCO)CC1)CNC2=O [Example 153, 2-(4-((1-(2-hydroxyethyl)-3-methyl-1H-indazol-5-yl)oxy)piperidin-1-yl)-3-methyl-6,7-dihydro-5H-pyrrolo[3,4-b]pyridin-5-one] | 528 |
| Cc1cc2c(nc1N1CCC(Oc3cncc(CO)c3)CC1)CNC2=O [Example 156, 2-(4-((5-(hydroxymethyl)pyridin-3-yl)oxy)piperidin-1-yl)-3-methyl-6,7-dihydro-5H-pyrrolo[3,4-b]pyridin-5-one] | 1220 |
| Cc1cc2c(nc1N1CCC(OCc3cccnc3)CC1)CNC2=O [Example 161, 3-Methyl-2-(4-(pyridin-3-ylmethoxy)piperidin-1-yl)-6,7-dihydro-5H-pyrrolo[3,4-b]pyridin-5-one] | 1520 |
| Cc1cc2c(nc1N1CC[C@@H](Oc3ccc4c(c3)C(=O)N(C)C4)[C@@H](F)C1)CNC2=O [Example 163, 2-((3S,4R)-3-fluoro-4-((2-methyl-3-oxoisoindolin-5-yl)oxy)piperidin-1-yl)-3-methyl-6,7-dihydro-5H-pyrrolo[3,4-b]pyridin-5-one] | 277 |
| Cc1cc2c(nc1N1CCC(Oc3ccc4[nH]nnc4c3)CC1)CNC2=O [Example 163A, 2-(4-((1H-benzo[d][1,2,3]triazol-5-yl)oxy)piperidin-1-yl)-3-methyl-6,7-dihydro-5H-pyrrolo[3,4-b]pyridin-5-one] | 1140 |

Other lines, results leading:

| EC50 [nM] | SMILES |
| --- | --- |
| 106 | Cc1cc2c(nc1N1CCC(Oc3cnn(C)c3)CC1)CNC2=O [Example 139, 3-methyl-2-(4-((1-methyl-1H-pyrazol-4-yl)oxy)piperidin-1-yl)-6,7-dihydro-5H-pyrrolo[3,4-b]pyridin-5-one] |
| 270 | Cc1cc2c(nc1N1CCC(Oc3cn[nH]c3)CC1)CNC2=O [Example 142, 2-(4-((1H-pyrazol-4-yl)oxy)piperidin-1-yl)-3-methyl-6,7-dihydro-5H-pyrrolo[3,4-b]pyridin-5-one] |
| 101 | Cc1cc2c(nc1N1CCC(Oc3ccc(O[C@@H](C)CO)nc3)CC1)CNC2=O [Example 143A, (S)-2-(4-((6-((1-hydroxypropan-2-yl)oxy)pyridin-3-yl)oxy)piperidin-1-yl)-3-methyl-6,7-dihydro-5H-pyrrolo[3,4-b]pyridin-5-one] |
| 117 | Cc1cc2c(nc1N1CCC(Oc3ccc(O[C@H](C)CO)nc3)CC1)CNC2=O [Example 143B, (R)-2-(4-((6-((1-hydroxypropan-2-yl)oxy)pyridin-3-yl)oxy)piperidin-1-yl)-3-methyl-6,7-dihydro-5H-pyrrolo[3,4-b]pyridin-5-one] |
| 31 | Cc1cc2c(nc1N1CCC(Oc3ccc4c(c3)OCCN4)CC1)CNC2=O [Example 148, 2-(4-((3,4-dihydro-2H-benzo[b][1,4]oxazin-7-yl)oxy)piperidin-1-yl)-3-methyl-6,7-dihydro-5H-pyrrolo[3,4-b]pyridin-5-one] |
| 32 | Cc1cc2c(nc1N1CCC(Oc3ccc(CO)cc3)CC1)CNC2=O [Example 151, 2-(4-(4-(hydroxymethyl)phen-oxy)piperidin-1-yl)-3-methyl-6,7-dihydro-5H-pyrrolo[3,4-b]pyridin-5-one] |
| 128 | Cc1cc2c(nc1N1CCC(Oc3ccc4c(c3)OC[C@H]4CCO)CC1)CNC2=O [Example 154, (S)-2-(4-((3-(2-hydroxyethyl)-2,3-dihydrobenzofuran-6-yl)oxy)piperidin-1-yl)-3-methyl-6,7-dihydro-5H-pyrrolo[3,4-b]pyridin-5-one] |
| 117 | Cc1cc2c(nc1N1CCC(Oc3ccc(CO)nc3)CC1)CNC2=O [Example 155, 2-(4-((6-(hydroxymethyl)pyridin-3-yl)oxy)piperidin-1-yl)-3-methyl-6,7-dihydro-5H-pyrrolo[3,4-b]pyridin-5-one] |
| 93 | Cc1cc2c(nc1N1CCC(Oc3ccc4c(c3)CC[C@@H]4CCO)CC1)CNC2=O [Example 157A, (R)-2-(4-((1-(2-hydroxyethyl)-2,3-dihydro-1H-inden-5-yl)oxy)piperidin-1-yl)-3-methyl-6,7-dihydro-5H-pyrrolo[3,4-b]pyridin-5-one] |
| 144 | Cc1cc2c(nc1N1CCC(Oc3ccc4c(c3)CC[C@H]4CCO)CC1)CNC2=O [Example 157B, (S)-2-(4-((1-(2-hydroxyethyl)-2,3-dihydro-1H-inden-5-yl)oxy)piperidin-1-yl)-3-methyl-6,7-dihydro-5H-pyrrolo[3,4-b]pyridin-5-one] |
| 28 | Cc1cc2c(nc1N1CCC(Oc3ccc4c(c3)COC4)CC1)CNC2=O [Example 159, 2-[4-(1,3-Dihydro-2-benzofuran-5-yloxy)piperidin-1-yl]-3-methyl-6,7-dihydro-5H-pyrrolo[3,4-b]pyridin-5-one] |
| 231 | COC(=O)c1cc2c(nc1N1CCC(Oc3ccc(OC)nc3)CC1)CNC2=O [Example 160, methyl 2-(4-((6-methoxypyridin-3-yl)oxy)piperidin-1-yl)-5-oxo-6,7-dihydro-5H-pyrrolo[3,4-b]pyridine-3-carboxylate] |
| 21 | Cc1c(N2CC[C@@H](OCC3(C)CC3)[C@@H](F)C2)nc2c(c1C)C(=O)NC2 [Example 161A, 2-((3S,4R)-3-Fluoro-4-((1-methylcyclopropyl)methoxy)piperidin-1-yl)-3,4-dimethyl-6,7-dihydro-5H-pyrrolo[3,4-b]pyridin-5-one] |
| 51 | Cc1nc2ccc(O[C@@H]3CCN(c4nc5c(cc4C)C(=O)NC5)C[C@@H]3F)cc2o1 [Example 162, 2-((3S,4R)-3-fluoro-4-((2-methylbenzo[d]oxazol-6-yl)oxy)piperidin-1-yl)-3-methyl-6,7-dihydro-5H-pyrrolo[3,4-b]pyridin-5-one] |
| 59 | CO[C@@H]1Cc2ccc(OC3CCN(c4nc5c(cc4C)C(=O)NC5)CC3)cc2C1 [Example 162A, (R)-2-(4-((2-methoxy-2,3-dihydro-1H-inden-5-yl)oxy)piperidin-1-yl)-3-methyl-6,7-dihydro-5H-pyrrolo[3,4-b]pyridin-5-one] |
| 47 | CO[C@H]1Cc2ccc(OC3CCN(c4nc5c(cc4C)C(=O)NC5)CC3)cc2C1 [Example 162B, (S)-2-(4-((2-methoxy-2,3-dihydro-1H-inden-5-yl)oxy)piperidin-1-yl)-3-methyl-6,7-dihydro-5H-pyrrolo[3,4-b]pyridin-5-one] |
